Results from US20110104177A1, “HISTONE DEACETYLASE INHIBITORS, COMBINATION THERAPIES AND METHODS OF USE” (THE JOHNS HOPKINS UNIVERSITY, priority 2006, published 2011).

What was measured:
[1] = tested on: SFRP1, SFRP2, MLH1, CRBP1, E-cadherin genes in RKO cells; assay: RT-PCR re-expression of silenced tumor suppressor genes in RKO cells; assay type: cell-based, human; settings: for SFRP1 RT-PCR specific band: doses of 20 and 50 μM, 24 or 48 hours
Description: To inhibit any residual SIRT1 protein, remaining RNAi-expressing cells were treated with 700 μM SPT and control samples were treated with DMSO for 24 hours. […] RKO cells were also treated with 0.5 μM Aza (24 hours), and samples were analyzed as described in FIG. 1A; RT-PCR was performed with intron-spanning primers specific for the two genes. GAPDH was also analyzed as a control. […] Control samples in which no reverse transcriptase was added were analyzed separately, and all were negative for amplification of the indicated genes. […] The level of TSG re-expression induced by Aza treatment or SIRT1 inhibition as described in FIG. 4(A) was compared to levels of expression in HCT116 cells in which the TSGs are basally expressed.
(§1) Cell culture and retroviral infection. MDA-MB-231, MCF7, HCT116, SW480 RKO, and Phoenix cells (ATCC, Rockville, Md., United States) were cultured in Dulbecco's modified Eagle's medium supplemented with 10% fetal bovine serum and 1% penicillin/streptomycin (Invitrogen, Carlsbad, Calif., United States). Retroviral infection was performed using either single or multiple rounds of infection. Briefly, Phoenix cells were transfected with either pBabe, pBabe-SIRT1H363Y, pSUPERretro, pSUPERretro-SIRT1-RNAi-1-3 (NM_012238 positions 410, 589, and 1091; Oligo Engine, Seattle, Wash., United States) using Lipofectamine 2000 (Invitrogen). After 48 h of transfection, the medium containing retrovirus was collected, filtered, and supplemented with Polybrene prior to infection of target cells (MDA-MB-231, MCF7, or HCT116). Infected cells were either harvested 24-48 hours later or subjected to selection with 2-3 μg/ml puromycin for a week prior to harvest and analysis.
(§2) RNA and protein preparation and analysis. Total RNA was extracted (Invitrogen) according to the manufacturer's instructions and subjected to reverse transcription followed by both quantitative real-time and semi-quantitative polymerase chain reaction. For quantitative real-time analyses, the QuantiTect SYBR Green PCR kit (Qiagen, Valencia, Calif., United States) was used and the amplification conditions consisted of an initial 10-minutes denaturation step at 95° C., followed by 40 cycles of denaturation at 95° C. for 15 s and annealing and extension for 30 seconds and 60 seconds, respectively. A BioRad iCycler was used (BioRad, Hercules, Calif., United States), and for quantitation the comparative cycle threshold (Ct) method was used, normalizing the Ct values for the indicated gene to the Ct values of GAPDH relative to a control sample. For conventional PCR, at least two independent sets of intron-spanning primers were used for the analysis of multiple genes, such as CRBP1, (NM_002899), E-cadherin, (L34545), SFRP1, (BC036503), SFRP2, (BC008666), and Gata-4 (L34357). For Western blots, cells stably expressing RNAi constructs were harvested in 50 mM Tris-HCl, 1% NP-40, 0.25% sodium deoxycholate, 150 mM NaCl, 50 mM sodium fluoride, 1 mM dithiothreitol, 1 mM AEBSF, 1× Complete protease inhibitor cocktail (Roche, Basel, Switzerland). Protein concentrations were measured by BCA (Pierce Biotechnology, Rockford, Ill., United States). […] On the same blot, β-actin (Sigma, St. Louis, Mo., United States) was probed to ensure equal loading.
(§3) The results from experiments performed in RKO cells are shown in FIG. 7 which presents RT-PCR results for SFRP1. […] The expression seemed stronger than for 300 μM splitomycin (Spt) or 20 mM nicotinamide (Nia) when these latter two drugs were used alone or in combination, but not as strong as the expression induced by 1 μM of the DNA demethylating agent, deoxy-aza-cytidine (Aza). […] Experiments were carried out as essentially described above.

[2] = target: T1, SIRT1 (Homo sapiens, UniProt Q96EB6); assay: Activity against the SIRT1 enzyme / SIRT1 deacetylase activity; assay type: biochemical
T1 sequence (Q96EB6 1-747): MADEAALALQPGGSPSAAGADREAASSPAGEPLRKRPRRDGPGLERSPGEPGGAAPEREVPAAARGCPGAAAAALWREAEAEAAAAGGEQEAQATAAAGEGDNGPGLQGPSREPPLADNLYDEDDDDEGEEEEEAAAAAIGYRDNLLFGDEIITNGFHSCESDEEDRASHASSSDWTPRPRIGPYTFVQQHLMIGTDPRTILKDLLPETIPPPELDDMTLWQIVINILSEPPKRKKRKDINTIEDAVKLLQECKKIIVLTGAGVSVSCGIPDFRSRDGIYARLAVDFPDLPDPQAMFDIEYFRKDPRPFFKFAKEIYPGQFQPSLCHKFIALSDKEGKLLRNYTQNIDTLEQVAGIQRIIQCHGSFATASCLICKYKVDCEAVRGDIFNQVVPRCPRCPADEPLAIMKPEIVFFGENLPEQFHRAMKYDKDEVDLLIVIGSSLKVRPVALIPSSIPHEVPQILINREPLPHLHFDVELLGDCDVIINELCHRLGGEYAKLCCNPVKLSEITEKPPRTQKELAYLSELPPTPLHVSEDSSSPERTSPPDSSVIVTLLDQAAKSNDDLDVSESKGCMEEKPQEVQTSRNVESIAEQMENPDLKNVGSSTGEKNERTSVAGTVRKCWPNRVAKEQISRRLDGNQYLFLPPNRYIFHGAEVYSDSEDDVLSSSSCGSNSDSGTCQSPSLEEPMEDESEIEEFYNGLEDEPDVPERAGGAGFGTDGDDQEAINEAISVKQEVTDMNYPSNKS

[3] = tested on: SFRP1 and 2 genes in human breast cancer cells (line H231); assay: Re-activation of SFRP1 and 2 genes in breast cancer cells (line H231); assay type: cell-based
Description: This has been accomplished for the SFRP1 and 2 genes in human breast cancer cells (line H231) and for SFRP1 in human colon cancer cells (line RKO).
as §3

[4] = tested on: SIRT1; assay: Western blot of SIRT1 protein after retroviral shRNA infection; assay type: cell-based, human
Description: as §1, §2

[5] = tested on: E-cadherin and MLH1 protein in MDA-MB-231 and RKO cells; assay: Western blot of tumor suppressor protein re-expression; assay type: cell-based, human; settings: puromycin selection 3 days
Description: The panels in FIG. 1 are as follows. […] Retroviral expression vectors encoding SIRT1 cDNA that produce short hairpin loop RNA targeting either distinct regions of SIRT1 mRNA (RNAi-1, -2, or -3) or a control (ctrl) were used to infect MCF7. Western blot analysis for SIRT1 and β-actin was performed 48 hours after two rounds of infection. […] RNA was isolated from parallel samples analyzed in FIG. 1(A), and RT-PCR was performed with intron-spanning primers specific for the genes SFRP1 and SFRP2. GAPDH was also analyzed as a control. […] Control samples in which no reverse transcriptase was added were analyzed separately, and all were negative for amplification of the indicated genes. […]
RNA and protein preparation and analysis. Total RNA was extracted (Invitrogen) according to the manufacturer's instructions and subjected to reverse transcription followed by both quantitative real-time and semi-quantitative polymerase chain reaction. For quantitative real-time analyses, the QuantiTect SYBR Green PCR kit (Qiagen, Valencia, Calif., United States) was used and the amplification conditions consisted of an initial 10-minutes denaturation step at 95° C., followed by 40 cycles of denaturation at 95° C. for 15 s and annealing and extension for 30 seconds and 60 seconds, respectively. […] Protein concentrations were measured by BCA (Pierce Biotechnology, Rockford, Ill., United States). […]

[6] = tested on: SFRP1 and SFRP2 genes in MCF7 cells; assay: RT-PCR re-expression of silenced tumor suppressor genes in MCF7 cells; assay type: cell-based, human; settings: retroviral infection, RT-PCR
Description: as §1, §2

[7] = tested on: SFRP1, SFRP2, E-cadherin, CRBP1 genes in MDA-MB-231 cells; assay: RT-PCR re-expression of silenced tumor suppressor genes in MDA-MB-231 cells; assay type: cell-based, human; settings: MDA-MB-231 cells; shRNA retroviral infection; RT-PCR
Description: The panels of FIG. 2 are as follows. […] MDA-MB-231 cells were treated with 15 mM NIA or 300 μM SPT for 21 hours, RNA was isolated, and RT-PCR was performed with intron-spanning primers specific for the indicated genes. Control samples in which no reverse transcriptase was added were analyzed separately, and all were negative for amplification of the indicated genes. […] MDA-MB-231 cells were treated with either 50 nM Aza (+), 100 μM SPT (+) or with both Aza and SPT (++), and 34 hours later, RT-PCR was performed for the indicated genes as described in FIG. 2(A). […] MDA-MB-231 cells were treated with either 0, 50, 100, or 120 μM SPT alone for 34 hours, or the treatment was followed by treatment with 300 nM TSA for 3 hours prior to RNA isolation and RT-PCR analysis. […] MDA-MB-231 cells were infected with low titers of virus for shRNA specific for SIRT1. Aza (100 nM) was added 24 hours prior to RNA isolation, and RT-PCR analysis was performed for the genes SFRP 1, SFRP2, and GAPDH as described in FIG. 2(A). […] As shown in the left panel, MDA-MB-231 cells were infected with a control (vec) or mutant SIRT1 virus (HY), and RT-PCR was performed as described in FIG. 2(A). MDA-MB-231 cells were infected with low titers of pBabe or pBabe-SIRT1H363Y retrovirus and subsequently treated with 100 nM Aza for 24 hours or with 300 nM TSA for 3 hours prior to harvest, and RT-PCR was performed.
as §1, §2

[8] = tested on: SFRP1, SFRP2, GATA4 promoter methylation in MDA-MB-231 cells; assay: Promoter DNA methylation by bisulfite sequencing and MSP; assay type: cell-based, human; settings: MDA-MB-231 cells stably infected
Text: The panels of FIG. 3 are as follows. […] Parallel samples analyzed in FIG. 1D were subjected to bisulfite sequencing of the SFRP1 promoter from MDA-MB-231 cells stably infected with control vector or RNAi-2 or RNAi-3 retrovirus. Open circles indicate unmethylated cytosines, and closed circles indicate methylated cytosines. Numbers at the bottom show the position of cytosines relative to the transcription start site, which is at position 0, and those with a minus sign (−) are upstream from this start site. The region sequenced encompasses the CpG island in which methylation status correlates with gene expression status. […] From left to right: (−) PCR Ctrl indicates H2O only; (−) BS ctrl indicates bisulfite-treated H20; (+) M ctrl indicates the cell line in which SFRP1 is partially methylated and SFRP2 and GATA4 are fully methylated; and (+) U ctrl indicates the Tera-2 cell line in which each gene is unmethylated. All remaining lanes are for MDA-MB-231. From left to right: Aza indicates 1 μM Aza (24 hours) treatment; Ctrl indicates empty vector infection; RNAi-2 indicates shRNA-2 infection alone; RNAi-3 indicates shRNA-3 infection alone; Aza indicates 1 μM Aza (24 hours treatment of control cells; Ctrl indicates empty vector infection+vehicle; RNAi-2 indicates shRNA-2 infection+5 mM NIA treatment; and RNAi-3 indicates shRNA-3 infection+5 mM NIA treatment.
MSP and bisulfite sequencing. […]

Molecule | SFRP1 RT-PCR specific band ([1]; RKO cells) | inhibition of SIRT1 deactylase activity [2] | SFRP1 expression compared with 1 μM deoxy-aza-cytidine (Aza) ([1]; RKO cells, RT-PCR) | SFRP1 expression compared with 300 μM splitomycin or 20 mM nicotinamide, alone or in combination ([1]; RKO cells, RT-PCR) | transcriptional re-activation of SFRP1 and 2 genes [3] | reduction of SIRT1 protein (knockdown) ([4]; MDA-MB-231 cells) | gene re-expression of SFRP1, SFRP2 and E-cadherin [7] | SFRP1 promoter methylation profile (bisulfite sequencing) [8] | further results
NC(=O)[C@@H]1CCCc2c1[nH]c1ccc(Cl)cc21 [(R)-6-chloro-2,3,4,9-tetrahydro-1H-carbazole-1-carboxamide] | produces no specific band | inactive | – | – | – | – | – | – | –
NC(=O)[C@H]1CCCc2c1[nH]c1ccc(Cl)cc21 [(S)-6-chloro-2,3,4,9-tetrahydro-1H-carbazole-1-carboxamide] | produce the band at both time points | potent inhibition | not as strong | stronger | the same effects have been achieved | – | – | – | –
NC(=O)C1CCCCc2c1[nH]c1ccc(Cl)cc21 (stereo not drawn) [Compound 6, 2-Chloro-5,6,7,8,9,10-hexahydro-cyclohepta[b]indole-6-carboxylic acid amide] | produce the band at both time points | potent inhibition | not as strong | stronger | the same effects have been achieved | – | – | – | –
RNAi-3: shRNA targeting SIRT1 mRNA, sequence CATAGACACGCTGGAACAG, NM_012238 position 1091 | – | – | – | – | – | very effective in reducing protein levels | led to gene re-expression | without changes in the methylation profile | gene re-expression of CRB1 and E-cadherin ([1]; RKO cells stably expressing shRNA, treated with 700 μM SPT 24 hours, RT-PCR): leads to gene re-expression; gene re-expression of SFRP1, SFRP2 and MLH1 ([1]; RKO cells, shRNA retroviral infection, RT-PCR): leads to gene re-expression of SFRP1, SFRP2, and MLH1; reduction of SIRT1 protein (knockdown) ([4]; MCF7 cells, Western blot 48 h after two rounds of infection): greatest knockdown; reduction of SIRT1 protein (knockdown) ([4]; RKO cells): SIRT1 protein reduction; protein re-expression (E-cadherin, MLH1) by Western blot [5]: protein re-expression that corresponded with the gene reactivation; gene re-expression of SFRP1 and SFRP2 [6]: led to gene re-expression
RNAi-2: shRNA targeting SIRT1 mRNA, sequence GGCCACGGATAGGTCCATA, NM_012238 position 589 | – | – | – | – | – | very effective in reducing protein levels | led to gene re-expression | without changes in the methylation profile | –
